Read-outs that look alike come from different tables or passages of the source.
Tests used:
Assay type in all cases: biochemical
[1] = target: T1, CLK4 (h) (Homo sapiens, UniProt Q9HAZ1); test: CLK4 KinaseProfiler radiometric protein kinase assay; conditions: 15 μM ATP, 40 minutes at room temperature
T1 construct: purchased Merck Millipore (KinaseProfiler service)
Procedure: (§1) In vitro essays were performed by the company Merck Millipore in their KinaseProfiler radiometric protein kinase assay as paid commercial service. The compounds IC50 values for inhibition of individual protein kinases were determined. Dose-response curves were plotted from inhibition data generated, each in duplicate, from 10 point serial dilutions of inhibitory compounds. Concentration of compound was plotted against % kinase activity. To generate IC50 values, the dose-response curves were fitted to a standard sigmoidal curve and IC50 values were derived by standard nonlinear regression analysis.
(§2) All tested compounds were prepared in 100% DMSO to final assay concentrations either 0.5 mM (for the concentration row A, see below) or 0.05 mM (for the concentration row B). This working stock of the compound was added to the assay well as the first component in the reaction, followed by the remaining components as detailed below. The stock solution was added to the individual assay wells in such amounts that the concentrations of the compound were either in the row A (0.001 μM, 0.003 μM, 0.01 μM, 0.03 μM, 0.1 μM, 0.3 μM, 1.0 μM, 3.0 μM, and 10.0 μM) or in the row B (0.0001 μM, 0.0003 μM, 0.001 μM, 0.003 μM, 0.01 μM, 0.03 μM, 0.1 μM, 0.3 μM, and 1.0 μM). There was no pre-incubation step between the compound and the kinase prior to initiation of the reaction.
(§3) The positive control wells contained all components of the reaction, except the compound of interest; however, DMSO (at a final concentration of 2%) was included in these wells to control for solvent effects. The blank wells contained all components of the reaction, with staurosporine as a reference inhibitor replacing the compound of interest. This abolished kinase activity and established the base-line (0% kinase activity remaining).
CLK4 (h) was diluted in the buffer (20 mM MOPS, 1 mM EDTA, 0.01% Brij-35, 5% Glycerol, 0.1% β-mercaptoethanol, 1 mg/mL BSAs) to the concentration of 1.01 mg/mL prior to addition to the reaction mix.
(§4) The above stock solution of CLK4(h) was added to a mixture containing 8 mM MOPS pH 7.0, 0.2 mM EDTA, and 200 μM […](p) EDEEE in such amount that the resulting concentration of CLK4(h) was 140.8 nM. This mixture was added to the stock solution of the tested compound. The reaction was initiated by the addition of the MgATP mix in such amount that the resulting concentration of Mg acetate in the reaction mixture was 10 mM and [γ-^33P-ATP] (specific activity approx. 500 cpm/pmol) was 15 μM. After incubation for 40 minutes at room temperature, the reaction was stopped by the addition of 3% phosphoric acid solution. 10 μL of the reaction was then spotted onto a P30 filtermat and washed three times for 5 minutes in 75 mM phosphoric acid and once in methanol prior to drying and scintillation counting.

[2] = target: T2, HIPK1(h) (Homo sapiens, UniProt Q86Z02); test: HIPK1 KinaseProfiler radiometric protein kinase assay; conditions: 45 μM ATP, 40 minutes at room temperature
T2 construct: purchased Merck Millipore (KinaseProfiler service)
Procedure: as §1, §2, §3
HIPK1(h) was diluted in the buffer (20 mM MOPS, 1 mM EDTA, 0.01% Brij-35, 5% Glycerol, 0.1% β-mercaptoethanol, 1 mg/mL BSAs) to the concentration of 1.01 mg/mL prior to addition to the reaction mix.
(§5) The above stock solution of HIPK1(h) was added to a mixture containing 8 mM MOPS pH 7.0, 0.2 mM EDTA, and 0.33 mg/mL myelin basic protein in such amount that the resulting concentration of HIPK1(h) was 4.7 nM. This mixture was added to the stock solution of the tested compound. The reaction was initiated by the addition of the MgATP mix in such amount that the resulting concentration of Mg acetate in the reaction mixture was 10 mM and [γ-^33P-ATP] (specific activity approx. 500 cpm/pmol) was 45 μM. After incubation for 40 minutes at room temperature, the reaction was stopped by the addition of 3% phosphoric acid solution. 10 μL of the reaction was then spotted onto a P30 filtermat and washed three times for 5 minutes in 75 mM phosphoric acid and once in methanol prior to drying and scintillation counting.

[3] = target: T3, CLK2 (h) (Homo sapiens, UniProt P49760); test: CLK2 KinaseProfiler radiometric protein kinase assay
T3 construct: purchased Merck Millipore (KinaseProfiler service)
Procedure: as §1, §2, §3
CLK2 (h) was diluted in the buffer (20 mM MOPS (3-(N-morpholino)propanesulfonic acid), 1 mM EDTA (ethylendiaminotetraacetic acid), 0.01% Brij-35 (detergent), 5% Glycerol, 0.1% β-mercaptoethanol, 1 mg/mL BSAs) to the concentration of 1.01 mg/mL prior to addition to the reaction mix.
as §4, with “CLK2(h)” for “CLK4(h)”, “20” for “200”, “2.1” for “140.8”

[4] = target: T4, HIPK2(h) (Homo sapiens, UniProt Q9H2X6); test: HIPK2 KinaseProfiler radiometric protein kinase assay; conditions: 10 μM ATP, 40 minutes at room temperature
T4 construct: purchased Merck Millipore (KinaseProfiler service)
Procedure: as §1, §2, §3
HIPK2(h) was diluted in the buffer (20 mM MOPS, 1 mM EDTA, 0.01% Brij-35, 5% Glycerol, 0.1% β-mercaptoethanol, 1 mg/mL BSAs) to the concentration of 1.01 mg/mL prior to addition to the reaction mix.
as §5, with “HIPK2(h)” for “HIPK1(h)”, “1.4” for “4.7”, “10” for “45”

T4 sequence (Q9H2X6 whole entry): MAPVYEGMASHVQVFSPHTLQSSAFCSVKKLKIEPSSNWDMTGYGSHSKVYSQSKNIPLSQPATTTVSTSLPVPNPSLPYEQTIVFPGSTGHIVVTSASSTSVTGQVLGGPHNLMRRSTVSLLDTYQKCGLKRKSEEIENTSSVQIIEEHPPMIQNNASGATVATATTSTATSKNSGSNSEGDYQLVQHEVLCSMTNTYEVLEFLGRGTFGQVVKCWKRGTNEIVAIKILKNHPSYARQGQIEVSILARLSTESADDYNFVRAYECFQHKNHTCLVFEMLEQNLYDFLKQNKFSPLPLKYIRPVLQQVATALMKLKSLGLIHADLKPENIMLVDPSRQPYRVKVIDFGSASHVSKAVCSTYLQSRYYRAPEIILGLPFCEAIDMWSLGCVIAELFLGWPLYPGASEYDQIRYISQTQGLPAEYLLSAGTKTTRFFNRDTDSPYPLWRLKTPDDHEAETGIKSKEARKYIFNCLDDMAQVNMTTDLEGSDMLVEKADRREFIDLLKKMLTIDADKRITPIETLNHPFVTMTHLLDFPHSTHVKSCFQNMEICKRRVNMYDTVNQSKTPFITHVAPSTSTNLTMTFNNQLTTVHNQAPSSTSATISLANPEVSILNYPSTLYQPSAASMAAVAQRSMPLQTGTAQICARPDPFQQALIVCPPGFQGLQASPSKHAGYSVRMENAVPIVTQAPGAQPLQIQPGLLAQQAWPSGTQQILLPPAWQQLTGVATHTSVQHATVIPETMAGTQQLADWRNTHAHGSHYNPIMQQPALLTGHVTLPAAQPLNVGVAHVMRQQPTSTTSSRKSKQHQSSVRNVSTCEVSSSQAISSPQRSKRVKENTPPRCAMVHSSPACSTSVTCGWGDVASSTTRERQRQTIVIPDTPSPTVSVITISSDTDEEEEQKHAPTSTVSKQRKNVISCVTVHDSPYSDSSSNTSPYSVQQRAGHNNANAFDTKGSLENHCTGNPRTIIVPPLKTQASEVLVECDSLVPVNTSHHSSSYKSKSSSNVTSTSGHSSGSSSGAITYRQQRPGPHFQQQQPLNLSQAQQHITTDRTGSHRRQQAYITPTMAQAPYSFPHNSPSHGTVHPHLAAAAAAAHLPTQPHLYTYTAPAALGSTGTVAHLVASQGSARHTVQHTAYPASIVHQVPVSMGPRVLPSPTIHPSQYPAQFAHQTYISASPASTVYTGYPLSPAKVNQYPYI
T1 sequence (Q9HAZ1 whole entry): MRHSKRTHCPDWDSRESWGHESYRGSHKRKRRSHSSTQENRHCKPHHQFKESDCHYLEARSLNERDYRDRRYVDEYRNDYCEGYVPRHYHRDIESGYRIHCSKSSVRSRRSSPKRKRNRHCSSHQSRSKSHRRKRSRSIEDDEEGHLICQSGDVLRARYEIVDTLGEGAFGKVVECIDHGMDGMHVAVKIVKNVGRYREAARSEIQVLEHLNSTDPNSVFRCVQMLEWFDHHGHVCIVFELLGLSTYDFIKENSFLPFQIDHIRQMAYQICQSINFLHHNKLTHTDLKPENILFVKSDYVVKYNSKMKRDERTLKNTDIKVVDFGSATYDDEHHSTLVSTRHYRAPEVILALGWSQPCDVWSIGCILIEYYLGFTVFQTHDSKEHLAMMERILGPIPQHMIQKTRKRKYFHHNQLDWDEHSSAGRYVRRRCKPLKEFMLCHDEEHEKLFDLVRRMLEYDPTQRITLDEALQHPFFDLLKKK
T2 sequence (Q86Z02 whole entry): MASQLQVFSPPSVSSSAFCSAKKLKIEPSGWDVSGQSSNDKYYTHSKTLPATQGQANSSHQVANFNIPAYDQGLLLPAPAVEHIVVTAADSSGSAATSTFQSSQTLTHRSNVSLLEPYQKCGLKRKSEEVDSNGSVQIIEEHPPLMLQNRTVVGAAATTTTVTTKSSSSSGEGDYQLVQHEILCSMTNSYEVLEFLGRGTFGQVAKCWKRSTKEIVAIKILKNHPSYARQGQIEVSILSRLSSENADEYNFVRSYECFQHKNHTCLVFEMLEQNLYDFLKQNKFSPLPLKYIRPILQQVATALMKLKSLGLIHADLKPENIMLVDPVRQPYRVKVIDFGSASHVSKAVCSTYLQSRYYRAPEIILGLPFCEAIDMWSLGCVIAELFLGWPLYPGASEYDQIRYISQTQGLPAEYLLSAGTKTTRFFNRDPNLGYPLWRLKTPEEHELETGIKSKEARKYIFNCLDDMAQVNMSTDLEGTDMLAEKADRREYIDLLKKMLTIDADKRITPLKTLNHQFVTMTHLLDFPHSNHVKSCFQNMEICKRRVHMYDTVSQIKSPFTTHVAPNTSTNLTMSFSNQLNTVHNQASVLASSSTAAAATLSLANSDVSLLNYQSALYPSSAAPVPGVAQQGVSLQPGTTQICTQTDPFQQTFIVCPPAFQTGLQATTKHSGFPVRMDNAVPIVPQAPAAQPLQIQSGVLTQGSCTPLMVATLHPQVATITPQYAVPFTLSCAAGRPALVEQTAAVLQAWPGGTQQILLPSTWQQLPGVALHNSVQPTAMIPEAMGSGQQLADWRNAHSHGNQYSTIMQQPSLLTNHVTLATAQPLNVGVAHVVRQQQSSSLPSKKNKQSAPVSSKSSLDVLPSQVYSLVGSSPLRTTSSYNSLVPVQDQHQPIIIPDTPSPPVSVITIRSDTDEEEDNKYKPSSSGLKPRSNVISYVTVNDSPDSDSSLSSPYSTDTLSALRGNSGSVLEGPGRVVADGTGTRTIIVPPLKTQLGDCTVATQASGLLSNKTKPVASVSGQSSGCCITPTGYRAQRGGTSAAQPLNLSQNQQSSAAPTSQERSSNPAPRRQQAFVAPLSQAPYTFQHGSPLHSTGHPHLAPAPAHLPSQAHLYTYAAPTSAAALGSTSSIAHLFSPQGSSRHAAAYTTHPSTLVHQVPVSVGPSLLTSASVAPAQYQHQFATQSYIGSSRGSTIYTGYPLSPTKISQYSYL
T3 sequence (P49760 whole entry): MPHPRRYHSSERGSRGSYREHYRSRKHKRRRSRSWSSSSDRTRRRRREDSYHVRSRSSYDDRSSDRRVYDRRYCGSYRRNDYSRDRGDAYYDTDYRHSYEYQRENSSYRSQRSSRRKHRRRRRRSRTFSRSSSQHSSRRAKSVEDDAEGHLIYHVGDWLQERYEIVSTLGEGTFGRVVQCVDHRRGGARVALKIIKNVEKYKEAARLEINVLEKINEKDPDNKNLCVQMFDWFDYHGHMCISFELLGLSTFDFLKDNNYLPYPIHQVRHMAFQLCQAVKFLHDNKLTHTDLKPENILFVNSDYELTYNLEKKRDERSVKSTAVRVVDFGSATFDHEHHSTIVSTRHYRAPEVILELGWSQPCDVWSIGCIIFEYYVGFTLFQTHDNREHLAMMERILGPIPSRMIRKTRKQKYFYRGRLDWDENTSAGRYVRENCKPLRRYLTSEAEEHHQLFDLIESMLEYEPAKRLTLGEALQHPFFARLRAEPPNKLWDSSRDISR

SMILES	IC50 [1] [nM]	IC50 [2] [nM]	IC50 ([3]; radiometric, 15 μM ATP, 40 minutes at room temperature, read-out: CLK2 IC50) [nM]	IC50 [4] [nM]	IC50 [3] [nM]
Cn1cc(-c2ccc3occ(-c4ccccc4)c3n2)cn1 [Preparative Example 6A]	< 100	< 1000	< 1000	< 1000	
c1ccc(-c2coc3ccc(-c4cn[nH]c4)nc23)cc1 [Preparative Example 9]	< 100	< 100		< 100	< 100

Source: US9902733B2, “Furopyridines as inhibitors of protein kinases” (MASARYKOVA UNIVERZITA, priority 2014, dated 2018)
